Where two headings read alike, the source gives them in different places.
How the values were obtained:
serum albumin (SA) = conditions: after intravenous injection, in most of the cases; cited from earlier work
[1] = system: SAs from different species; conditions: CSA versus HSA
plasma protein = conditions: cited from earlier work
human serum albumin = conditions: previous study, cited from earlier work

CC(C)c1cccc(C(C)C)c1O [PR, 2,6-Diisopropylphenol]
PR bound to SA (serum albumin (SA)): approximately 80% | difference between UC50 values [1]: 0.07 | % PPB (plasma protein binding) (plasma protein): 96–98% | ΔGPBSA (human serum albumin; PR1): -23.44 kcal/mol | ΔGPBSA (human serum albumin; PR2): -19.03 kcal/mol

Reference: paper PMC7557242 (ACS Omega, 2020)
